According to patent publication US20260035339A1, “TETRAHYDRONAPHTHALENE DERIVATIVE” (ATRANSEN PHARMA LTD., priority 2022, published 2026):

Key:
[1] = molecular target: human LAT1 (Homo sapiens, UniProt Q01650); test: [14C]L-leucine uptake inhibition test using human-LAT1 stably expressing HEK293 cell line; type: cell-based; design: having full-length cDNA of human LAT1 or LAT2 inserted under a promoter of CMV; expressed in transfected cells; key to Assay Data: degree of [14C]L-leucine uptake inhibition compared with BCH: a test compound having a higher inhibitory effect than BCH is denoted by A; a test compound having the same inhibitory effect as BCH is denoted by B; a test compound having a lower inhibitory effect than BCH is denoted by C
In short: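 HEK293 cells stably expressing human LAT1, preincubated 10 min in Na^+-free HBSS, then exposed 1 min to 1 μM [14C]L-leucine with racemic compound (0.1, 1.0, 10, 0 μM). Lysate radioactivity counted by scintillation and normalized to protein as uptake per mg protein per minute; graded against BCH.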

[2] = test system: Human breast cancer cells MCF7; test: BNCT-enhancing effect by L-BPA confinement using cultured cells (colony formation after neutron irradiation); type: cell-based; settings: MCF7 loaded with 100 μM L-[10B]BPA, then 10 μM compound for 60 minutes; neutron rays 5 MW for 4 minutes
Description: Human breast cancer cells MCF7 were plate-cultured in an RPMI medium for 48 hours, then replaced with an RPMI medium containing 100 μM of L-[10B]BPA, and cultured for 15 minutes to allow the L-[10B]BPA to be taken up in the cells. After washing with HBSS, the cells were cultured in an RPMI medium for 60 minutes, and after further washing with HBSS, the cells were peeled off and stored in HBSS at room temperature for 1.5 hours ((−) in FIG. 3A). L-BPA was taken up in the cells, washed with HBSS and then cultured in an RPMI medium containing the compound of Example 1-1 (10 μM) obtained in the present invention for 60 minutes, and after further washing with HBSS, the cells were peeled off and stored in HBSS at room temperature for 1.5 hours ((+) in FIG. 3A). The cells were cultured in an RPMI medium containing no L-[10B]BPA for 15 minutes, and after washing with HBSS, the cells were peeled off and stored in HBSS at room temperature for 1.5 hours ((No BPA Hot control) in FIG. 3A). These three cell samples were irradiated with neutron rays (5 MW for 4 minutes). After irradiation, in order to measure viable cells, the cells were plate-cultured and the number of colonies generated after 2 weeks was measured. The number of viable cells was evaluated as surviving fraction (%) (FIG. 3A).

human LAT1, sequence (Q01650 whole entry): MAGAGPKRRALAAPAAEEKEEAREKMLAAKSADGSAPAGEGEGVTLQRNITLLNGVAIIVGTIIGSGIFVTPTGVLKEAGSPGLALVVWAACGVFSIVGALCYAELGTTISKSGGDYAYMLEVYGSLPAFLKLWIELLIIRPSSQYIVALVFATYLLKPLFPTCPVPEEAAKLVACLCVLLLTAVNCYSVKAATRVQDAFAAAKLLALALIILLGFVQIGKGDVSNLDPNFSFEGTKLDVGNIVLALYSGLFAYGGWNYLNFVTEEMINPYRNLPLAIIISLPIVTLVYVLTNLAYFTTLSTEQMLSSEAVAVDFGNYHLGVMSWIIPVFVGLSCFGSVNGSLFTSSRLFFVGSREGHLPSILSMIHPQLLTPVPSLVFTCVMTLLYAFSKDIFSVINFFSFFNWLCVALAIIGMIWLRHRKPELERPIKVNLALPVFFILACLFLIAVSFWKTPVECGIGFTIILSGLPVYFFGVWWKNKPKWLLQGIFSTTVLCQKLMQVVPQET
human LAT1, sequence (P08195 102-630 partner): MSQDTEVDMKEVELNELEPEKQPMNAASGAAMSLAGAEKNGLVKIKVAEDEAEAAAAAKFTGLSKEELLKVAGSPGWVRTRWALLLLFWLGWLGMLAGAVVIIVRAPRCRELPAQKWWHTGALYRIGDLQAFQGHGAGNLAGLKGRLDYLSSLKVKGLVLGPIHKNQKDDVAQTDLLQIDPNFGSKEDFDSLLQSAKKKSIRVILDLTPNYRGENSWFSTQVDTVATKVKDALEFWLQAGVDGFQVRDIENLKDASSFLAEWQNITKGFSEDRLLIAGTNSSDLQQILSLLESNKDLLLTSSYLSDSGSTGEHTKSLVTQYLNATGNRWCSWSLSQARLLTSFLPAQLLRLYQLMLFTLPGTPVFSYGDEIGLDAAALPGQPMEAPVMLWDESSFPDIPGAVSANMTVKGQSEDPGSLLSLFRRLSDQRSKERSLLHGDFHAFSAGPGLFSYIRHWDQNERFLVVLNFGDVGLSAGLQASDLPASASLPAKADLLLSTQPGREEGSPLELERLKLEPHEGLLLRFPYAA

Compound: NC1(C(=O)O)CCc2ccc(Oc3ccc4ccccc4c3)cc2C1 (centres unmarked) [Example 1-1, 2-carboxy-7-(naphthalene-2-yloxy)-1,2,3,4-tetrahydronaphthalene-2-aminium chloride]
- suppression rate of labeled leucine uptake ([1]; 0.1 μM of the compound (racemic form)): about 70%
- Assay Data: degree of [14C]L-leucine uptake inhibition compared with BCH ([1]; compound (racemic form) and BCH at 0.1, 1.0, 10 μM, 1 μM [14C]L-leucine, 1 minute, Na+-free HBSS): A
- IC50 ([1]; racemic form, 1 μM [14C]L-leucine, 1 minute, read-out: 50% suppression concentration (racemic form), [14C]L-leucine uptake): ≤ 100 nM
- LAT1 inhibitory effect, compounds singled out (in words) ([1]; same test as Table 1): particularly remarkable effects
- BNCT-enhancing effect (surviving fraction after neutron irradiation) [2]: large BNCT-enhancing effect
